Measurements published in PMC9871955, “High-throughput screening of SARS-CoV-2 main and papain-like protease inhibitors” (Protein & Cell, 2022).
Read-outs that look alike come from different tables or passages of the source.

Columns and labels:
[1] = tested on: Vero cells
[2] = biological target: SARS-CoV-2 M^pro (Severe acute respiratory syndrome coronavirus 2, UniProt P0DTD1); experiment: biochemical
[3] = Table S2, PL^pro inhibitors, same inhibitor concentration
[4] = Table S1, M^pro inhibitors, same inhibitor concentration (10 µg/mL)
[5] = read-out: IC50 / inhibitory activity against M^pro
[6] = Table S3, representative dual inhibitors, read-out: IC50 for M^pro
[7] = Table S1, M^pro inhibitors, 40 nmol/L enzyme, 20 µmol/L substrate, read-out: IC50

| SMILES | Cytotoxicity activity (%) [1, 3] [%] | Cytotoxicity activity (%) [1, 4] [%] | IC50 ([2]; IC50 (μM) at S/KM 1) [µM] | IC50 ([2]; IC50 (μM) at S/KM 2) [µM] | IC50 ([2]; IC50 (μM) at S/KM 1/2) [µM] | IC50 [2, 6] [µM] | IC50 [2, 7] [µM] | also measured |
| --- | --- | --- | --- | --- | --- | --- | --- | --- |
| CCC(C(=O)NCc1ccco1)n1c(Cc2c(Cl)cccc2Cl)nc2ccccc21 (stereo not shown) [CD3226-D010] | -22.39 |  |  |  |  |  |  |  |
| CC(C(=O)NCc1ccco1)n1c(Cc2c(Cl)cccc2Cl)nc2ccccc21 (stereo not shown) [CD3531-C011] | -14.28 |  |  |  |  |  |  |  |
| COc1ccc(CN2C(=O)NC(=O)/C(=C\c3ccco3)C2=O)cc1 [CDE0972-G011] |  | -7.84 |  |  |  |  |  | IC50 ([2]; read-out: IC50 (μM) at S/KM 1): 2.86 ± 0.53 µM; IC50 ([2]; read-out: IC50 (μM) at S/KM 1/2): 2.17 ± 0.2 µM; IC50 ([2]; read-out: IC50 (μM) at S/KM 2): 3.5 ± 0.42 µM |
| O=C(NCc1n[nH]c(=S)n1-c1ccc(Br)cc1)c1ccc(Cl)cc1Cl [JK0108-D008] | -8.62 |  | 4.37 ± 0.84 | 5.83 ± 1.68 |  |  |  | IC50 [2, 5]: 0.5 µM |
| CCOc1cc(C(=O)NCc2n[nH]c(=S)n2-c2ccc(Br)cc2)cc(OCC)c1OCC [JK0109-B004] | -7.5 |  | 1.62 ± 0.24 | 2.17 ± 0.27 | 1.01 ± 0.25 | 9.7 ± 0.1 |  |  |
| COc1ccc(-n2c(CNC(=O)COc3ccc(Cl)cc3Cl)n[nH]c2=S)cc1 [JK0109-B011] | -7.31 |  | 1.53 ± 0.58 |  | 1.33 ± 0.26 | 21.8 ± 0.3 |  |  |
| COc1ccc(-n2c(S)nnc2CNC(=O)c2cc(OC)c(OC)c(OC)c2)cc1 [JK0109-C011] | -9.42 |  | 16.1 ± 3.07 |  | 2.3 ± 0.96 | 42.8 ± 1.7 |  |  |
| O=C(COc1ccc(Cl)cc1)NCc1n[nH]c(=S)n1-c1ccc(Br)cc1 [JK0109-H005] | -4.08 |  |  | 3.36 ± 0.47 | 1.33 ± 0.28 | 4.2 ± 0.7 |  | IC50 (μM) at S/KM 1 [2]: 4.17 ± 1.29 µM |
| O=c1sc2ccccc2n1Cc1n[nH]c(=S)n1-c1ccccc1 [JK0946-F007] | -4.63 |  | 9.67 ± 3.64 | 8.97 ± 2.32 | 3.56 ± 0.62 | 8.7 ± 0.9 |  | IC50 [2, 5]: 4.2 ± 0.6 µM |
| COc1ccc(-n2c(S)nnc2CNc2ccc(C)cc2)cc1 [RUS0105-C005] |  | 5.87 |  |  |  |  | 0.478 ± 0.009 |  |
| O=C1NC(=O)C(=Cc2ccc(-c3cccc(Cl)c3)o2)C(=O)N1 [RUS0245-E010] |  | -8.14 | 0.25 ± 0.04 | 0.34 ± 0.09 | 0.34 ± 0.04 |  | 0.196 ± 0.009 |  |
| O=C(Oc1cncc(Cl)c1)c1sccc1Cl [WNN2048-F004] |  | 6.16 | 0.35 ± 0.11 | 0.33 ± 0.07 |  |  | 0.131 ± 0.011 | dependence of apparent IC50 on substrate concentration [2]: consistent IC50 that is not affected by substrate concentration; IC50 ([2]; running text and Figure 4A, read-out: IC50 against M^pro): 0.103 ± 0.0052 µM; cytotoxicity effect ([1]; in words): without cytotoxicity effect |
| Cc1ccc(NCc2n[nH]c(=S)n2-c2ccccc2)cc1 [WNN2867-E005] |  | -6.94 |  |  |  |  | 0.466 ± 0.101 |  |
| O=C1NC(=O)N(Cc2ccccc2)C(=O)C1=Cc1ccco1 [WNN3797-H008] |  | -7.75 |  | 0.55 ± 0.02 | 0.67 ± 0.28 |  | 0.172 |  |
| O=C1NC(=O)C(=Cc2ccc(-c3cccc(C(F)(F)F)c3)o2)C(=O)N1 [WNN3953-B007] |  | 13.01 | 0.77 ± 0.14 | 0.53 ± 0.1 |  |  | 0.16 ± 0.009 |  |
| O=C1NC(=O)C(=Cc2ccc(-c3cccc(Cl)c3Cl)o2)C(=O)N1 [WNN3989-H007] |  | -4.89 |  |  | 0.11 ± 0.01 |  | 0.552 ± 0.12 |  |
